ChEMBL document CHEMBL4507274 (2021)
pIC50: −log10 of the molar value.

Assays:
[1] = biological target: Ribosomal protein S6 kinase alpha-1 (Homo sapiens) (UniProt Q15418); test: Rsk1 (h) Upstate kinase activity assay; details: Compound concentration 10.0 uM
[2] = biological target: T1, Protein kinase C iota type (Homo sapiens) (UniProt P41743); test: PKCiota (h) Upstate kinase activity assay; details: Compound concentration 10.0 uM
T1 sequence (whole entry): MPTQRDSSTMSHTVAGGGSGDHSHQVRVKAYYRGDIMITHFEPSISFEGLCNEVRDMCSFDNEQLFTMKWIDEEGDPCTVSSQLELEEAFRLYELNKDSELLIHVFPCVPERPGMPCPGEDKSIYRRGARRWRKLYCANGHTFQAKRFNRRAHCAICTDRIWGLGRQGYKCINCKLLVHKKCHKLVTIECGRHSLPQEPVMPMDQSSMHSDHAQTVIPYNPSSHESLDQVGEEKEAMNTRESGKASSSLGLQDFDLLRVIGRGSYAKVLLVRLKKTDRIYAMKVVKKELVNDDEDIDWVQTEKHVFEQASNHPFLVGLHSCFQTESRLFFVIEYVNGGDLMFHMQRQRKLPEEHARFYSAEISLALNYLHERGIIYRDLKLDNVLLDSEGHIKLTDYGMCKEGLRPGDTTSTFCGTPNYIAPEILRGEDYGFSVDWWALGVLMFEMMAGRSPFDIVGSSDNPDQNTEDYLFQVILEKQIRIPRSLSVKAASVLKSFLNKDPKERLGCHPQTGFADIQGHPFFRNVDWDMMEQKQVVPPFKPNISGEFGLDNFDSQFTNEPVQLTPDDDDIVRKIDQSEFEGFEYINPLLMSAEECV

[3] = biological target: GABA-A receptor; anion channel (Rattus norvegicus) (UniProt O09028+P15431+P18506+P18508+P19969+P20236+P23574+P23576+P28471+P28473+P30191+P62813+P63079+P63138+Q91ZM7+Q9ES14); details: Compound concentration 10.0 uM
[4] = biological target: Proto-oncogene tyrosine-protein kinase ROS (Homo sapiens) (UniProt P08922); test: Ros (h) Upstate kinase activity assay; details: Compound concentration 10.0 uM
Proto-oncogene tyrosine-protein kinase ROS (Homo sapiens), sequence (P08922 whole entry): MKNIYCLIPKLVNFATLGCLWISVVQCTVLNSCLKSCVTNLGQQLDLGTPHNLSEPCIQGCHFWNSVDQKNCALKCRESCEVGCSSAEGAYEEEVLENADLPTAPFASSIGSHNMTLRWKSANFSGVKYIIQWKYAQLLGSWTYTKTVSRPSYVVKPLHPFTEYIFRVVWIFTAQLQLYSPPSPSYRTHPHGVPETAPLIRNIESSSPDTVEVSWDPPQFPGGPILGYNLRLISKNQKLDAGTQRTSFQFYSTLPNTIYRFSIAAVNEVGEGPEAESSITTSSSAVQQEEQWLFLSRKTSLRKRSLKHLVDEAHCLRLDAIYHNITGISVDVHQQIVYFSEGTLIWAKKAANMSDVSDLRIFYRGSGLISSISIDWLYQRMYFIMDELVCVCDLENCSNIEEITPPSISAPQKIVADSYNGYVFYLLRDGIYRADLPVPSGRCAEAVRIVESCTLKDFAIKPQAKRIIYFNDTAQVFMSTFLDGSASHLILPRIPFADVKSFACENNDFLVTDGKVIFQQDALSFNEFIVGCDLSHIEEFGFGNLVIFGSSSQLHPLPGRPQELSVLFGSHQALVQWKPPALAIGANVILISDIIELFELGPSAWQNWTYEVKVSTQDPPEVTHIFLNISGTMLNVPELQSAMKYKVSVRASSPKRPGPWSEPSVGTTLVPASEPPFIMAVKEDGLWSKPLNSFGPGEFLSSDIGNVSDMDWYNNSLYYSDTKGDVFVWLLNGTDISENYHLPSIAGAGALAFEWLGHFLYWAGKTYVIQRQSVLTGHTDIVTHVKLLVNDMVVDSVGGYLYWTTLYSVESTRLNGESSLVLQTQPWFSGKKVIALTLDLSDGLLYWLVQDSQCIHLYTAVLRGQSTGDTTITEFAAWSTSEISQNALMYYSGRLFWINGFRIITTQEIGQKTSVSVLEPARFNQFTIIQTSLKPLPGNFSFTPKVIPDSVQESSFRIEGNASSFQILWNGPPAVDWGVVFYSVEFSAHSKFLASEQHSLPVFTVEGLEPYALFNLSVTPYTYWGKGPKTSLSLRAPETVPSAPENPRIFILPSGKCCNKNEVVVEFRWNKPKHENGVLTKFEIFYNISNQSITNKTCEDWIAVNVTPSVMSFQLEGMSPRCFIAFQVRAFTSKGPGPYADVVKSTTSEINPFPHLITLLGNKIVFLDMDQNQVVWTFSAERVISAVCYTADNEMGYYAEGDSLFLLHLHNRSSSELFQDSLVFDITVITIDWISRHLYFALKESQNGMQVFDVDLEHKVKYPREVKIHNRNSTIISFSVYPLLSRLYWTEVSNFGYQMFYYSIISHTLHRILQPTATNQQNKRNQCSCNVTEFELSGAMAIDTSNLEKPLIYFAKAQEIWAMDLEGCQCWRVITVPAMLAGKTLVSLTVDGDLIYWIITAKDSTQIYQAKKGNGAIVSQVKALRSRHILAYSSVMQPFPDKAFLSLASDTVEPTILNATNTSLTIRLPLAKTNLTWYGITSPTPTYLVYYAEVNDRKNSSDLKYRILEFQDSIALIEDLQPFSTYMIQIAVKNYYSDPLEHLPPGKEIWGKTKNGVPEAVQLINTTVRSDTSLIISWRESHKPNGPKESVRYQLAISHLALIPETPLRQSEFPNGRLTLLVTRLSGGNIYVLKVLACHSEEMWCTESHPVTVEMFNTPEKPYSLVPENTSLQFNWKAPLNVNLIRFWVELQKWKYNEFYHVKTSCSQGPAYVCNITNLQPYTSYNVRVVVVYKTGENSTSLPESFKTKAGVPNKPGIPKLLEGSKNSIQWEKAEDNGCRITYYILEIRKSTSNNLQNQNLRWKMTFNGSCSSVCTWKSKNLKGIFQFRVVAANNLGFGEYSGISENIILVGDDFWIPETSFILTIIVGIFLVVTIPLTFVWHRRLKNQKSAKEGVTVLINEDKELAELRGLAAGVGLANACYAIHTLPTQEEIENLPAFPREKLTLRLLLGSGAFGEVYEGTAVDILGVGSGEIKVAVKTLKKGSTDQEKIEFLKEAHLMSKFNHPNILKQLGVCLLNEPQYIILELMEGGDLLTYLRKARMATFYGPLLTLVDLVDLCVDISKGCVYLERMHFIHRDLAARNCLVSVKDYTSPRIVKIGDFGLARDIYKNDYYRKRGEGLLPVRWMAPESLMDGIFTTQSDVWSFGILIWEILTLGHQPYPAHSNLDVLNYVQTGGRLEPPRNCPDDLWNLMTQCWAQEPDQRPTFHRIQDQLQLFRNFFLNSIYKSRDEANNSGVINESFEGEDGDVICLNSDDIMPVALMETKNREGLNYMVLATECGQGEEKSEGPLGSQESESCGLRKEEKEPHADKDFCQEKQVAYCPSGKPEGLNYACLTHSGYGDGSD

[5] = biological target: Angiopoietin-1 receptor (Homo sapiens) (UniProt Q02763); test: Tie2 (h) Upstate kinase activity assay; details: Compound concentration 10.0 uM
[6] = biological target: RAC-alpha serine/threonine-protein kinase (Homo sapiens) (UniProt P31749); test: PKBalpha (h) Upstate kinase activity assay; details: Compound concentration 10.0 uM
[7] = biological target: Protein kinase C gamma type (Homo sapiens) (UniProt P05129); test: PKCgamma (h) Upstate kinase activity assay; details: Compound concentration 10.0 uM
[8] = biological target: Cyclin-dependent kinase 5/CDK5 activator 1 (Homo sapiens) (UniProt Q00535+Q15078); test: CDK5/ p35 (h) Upstate kinase activity assay; assay type: protein-complex assay; details: Compound concentration 10.0 uM
[9] = biological target: AMP-activated protein kinase, AMPK (Rattus norvegicus) (UniProt P54645+Q09137+P80386+P80385+Q9QZH4+Q6V7V4+D4A7E4); test: AMPK (r) Upstate kinase activity assay; assay type: protein-complex assay; details: Compound concentration 10.0 uM
PC-6 = test: Lung PC-6 cell line MDS Pharma Services Proliferation Assay; assay type: functional, cell-based, Homo sapiens
K562 = test: Leukemia K562 cell line MDS Pharma Services Proliferation Assay; assay type: functional, cell-based, Homo sapiens
[10] = biological target: Calcium/calmodulin-dependent protein kinase type II subunit gamma (Rattus norvegicus) (UniProt P11730); test: CaMKII (r) Upstate kinase activity assay; details: Compound concentration 10.0 uM
Calcium/calmodulin-dependent protein kinase type II subunit gamma (Rattus norvegicus), sequence (P11730 whole entry): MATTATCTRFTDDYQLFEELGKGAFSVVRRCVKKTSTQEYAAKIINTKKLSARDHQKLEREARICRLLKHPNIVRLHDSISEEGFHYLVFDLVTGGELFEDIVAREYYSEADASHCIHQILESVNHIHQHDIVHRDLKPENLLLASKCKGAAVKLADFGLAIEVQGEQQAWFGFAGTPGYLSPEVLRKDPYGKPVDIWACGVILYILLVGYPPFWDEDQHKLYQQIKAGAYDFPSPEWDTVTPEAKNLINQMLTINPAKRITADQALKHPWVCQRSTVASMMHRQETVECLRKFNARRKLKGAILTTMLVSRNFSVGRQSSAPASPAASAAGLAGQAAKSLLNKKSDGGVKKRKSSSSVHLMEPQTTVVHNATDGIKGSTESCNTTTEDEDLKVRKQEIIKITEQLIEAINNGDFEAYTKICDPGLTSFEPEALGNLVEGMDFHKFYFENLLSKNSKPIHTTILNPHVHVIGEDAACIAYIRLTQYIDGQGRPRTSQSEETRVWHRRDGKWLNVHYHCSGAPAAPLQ

[11] = biological target: Protein kinase C beta type (Homo sapiens) (UniProt P05771); test: PKCBII(h) Upstate kinase activity assay; details: Compound concentration 10.0 uM
Protein kinase C beta type (Homo sapiens), sequence (P05771 2-671 limits assumed): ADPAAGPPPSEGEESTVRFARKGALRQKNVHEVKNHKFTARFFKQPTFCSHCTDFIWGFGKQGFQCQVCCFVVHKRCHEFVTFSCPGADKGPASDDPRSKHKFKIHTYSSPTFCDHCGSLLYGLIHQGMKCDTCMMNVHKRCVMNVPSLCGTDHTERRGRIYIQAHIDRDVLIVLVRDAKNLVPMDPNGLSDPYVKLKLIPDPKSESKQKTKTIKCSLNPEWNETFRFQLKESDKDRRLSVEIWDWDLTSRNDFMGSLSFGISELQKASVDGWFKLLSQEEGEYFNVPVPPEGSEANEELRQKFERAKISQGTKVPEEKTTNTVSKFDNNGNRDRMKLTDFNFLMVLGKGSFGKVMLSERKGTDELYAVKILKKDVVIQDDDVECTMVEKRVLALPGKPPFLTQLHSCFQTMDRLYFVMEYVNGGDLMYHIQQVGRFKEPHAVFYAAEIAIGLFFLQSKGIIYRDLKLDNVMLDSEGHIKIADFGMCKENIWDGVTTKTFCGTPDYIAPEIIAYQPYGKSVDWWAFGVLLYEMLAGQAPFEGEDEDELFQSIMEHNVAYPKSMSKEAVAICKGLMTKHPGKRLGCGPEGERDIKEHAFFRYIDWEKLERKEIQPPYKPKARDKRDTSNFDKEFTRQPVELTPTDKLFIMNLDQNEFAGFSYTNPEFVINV

[12] = biological target: Protein kinase C zeta type (Homo sapiens) (UniProt Q05513); test: PKCzeta (h) Upstate kinase activity assay; details: Compound concentration 10.0 uM
Protein kinase C zeta type (Homo sapiens), sequence (Q05513 whole entry): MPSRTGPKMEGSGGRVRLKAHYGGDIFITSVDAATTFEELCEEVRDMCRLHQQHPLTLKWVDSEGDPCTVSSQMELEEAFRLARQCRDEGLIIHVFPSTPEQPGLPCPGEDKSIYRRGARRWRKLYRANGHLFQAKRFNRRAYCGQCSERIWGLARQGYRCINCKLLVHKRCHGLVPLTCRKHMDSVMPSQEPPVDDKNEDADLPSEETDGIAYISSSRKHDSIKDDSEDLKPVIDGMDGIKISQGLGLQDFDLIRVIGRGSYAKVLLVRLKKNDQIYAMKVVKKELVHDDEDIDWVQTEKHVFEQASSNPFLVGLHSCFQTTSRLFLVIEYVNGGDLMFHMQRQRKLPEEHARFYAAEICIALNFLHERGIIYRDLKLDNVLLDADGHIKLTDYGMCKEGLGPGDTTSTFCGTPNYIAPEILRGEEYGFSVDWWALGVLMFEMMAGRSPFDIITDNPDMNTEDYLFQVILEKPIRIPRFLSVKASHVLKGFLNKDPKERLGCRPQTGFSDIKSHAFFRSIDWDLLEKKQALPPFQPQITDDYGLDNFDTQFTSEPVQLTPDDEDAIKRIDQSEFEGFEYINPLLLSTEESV

[13] = biological target: Protein kinase C alpha type (Homo sapiens) (UniProt P17252); test: PKCalpha (h) Upstate kinase activity assay; details: Compound concentration 10.0 uM
A549 = test: Lung A549 cell line MDS Pharma Services Proliferation Assay; assay type: functional, cell-based, Homo sapiens
[14] = biological target: Serine/threonine-protein kinase pim-1 (Homo sapiens) (UniProt P11309); test: Pim-1 (h) Upstate kinase activity assay; details: Compound concentration 10.0 uM
[15] = biological target: Proto-oncogene tyrosine-protein kinase Src (Homo sapiens) (UniProt P12931); test: cSRC (h) Upstate kinase activity assay; details: Compound concentration 10.0 uM
[16] = biological target: Serine/threonine-protein kinase MARK2 (Homo sapiens) (UniProt Q7KZI7); test: PAR-1Balpha (h) Upstate kinase activity assay; details: Compound concentration 10.0 uM
DLD-1 = test: Colon DLD-1 cell line MDS Pharma Services Proliferation Assay; assay type: functional, cell-based, Homo sapiens
[17] = biological target: Mitogen-activated protein kinase 11 (Homo sapiens) (UniProt Q15759); test: SAPK2b (h) Upstate kinase activity assay; details: Compound concentration 10.0 uM
[18] = biological target: Ribosomal protein S6 kinase alpha-5 (Homo sapiens) (UniProt O75582); test: MSK1 (h) Upstate kinase activity assay; details: Compound concentration 10.0 uM
Ribosomal protein S6 kinase alpha-5 (Homo sapiens), sequence (O75582 whole entry, looked up): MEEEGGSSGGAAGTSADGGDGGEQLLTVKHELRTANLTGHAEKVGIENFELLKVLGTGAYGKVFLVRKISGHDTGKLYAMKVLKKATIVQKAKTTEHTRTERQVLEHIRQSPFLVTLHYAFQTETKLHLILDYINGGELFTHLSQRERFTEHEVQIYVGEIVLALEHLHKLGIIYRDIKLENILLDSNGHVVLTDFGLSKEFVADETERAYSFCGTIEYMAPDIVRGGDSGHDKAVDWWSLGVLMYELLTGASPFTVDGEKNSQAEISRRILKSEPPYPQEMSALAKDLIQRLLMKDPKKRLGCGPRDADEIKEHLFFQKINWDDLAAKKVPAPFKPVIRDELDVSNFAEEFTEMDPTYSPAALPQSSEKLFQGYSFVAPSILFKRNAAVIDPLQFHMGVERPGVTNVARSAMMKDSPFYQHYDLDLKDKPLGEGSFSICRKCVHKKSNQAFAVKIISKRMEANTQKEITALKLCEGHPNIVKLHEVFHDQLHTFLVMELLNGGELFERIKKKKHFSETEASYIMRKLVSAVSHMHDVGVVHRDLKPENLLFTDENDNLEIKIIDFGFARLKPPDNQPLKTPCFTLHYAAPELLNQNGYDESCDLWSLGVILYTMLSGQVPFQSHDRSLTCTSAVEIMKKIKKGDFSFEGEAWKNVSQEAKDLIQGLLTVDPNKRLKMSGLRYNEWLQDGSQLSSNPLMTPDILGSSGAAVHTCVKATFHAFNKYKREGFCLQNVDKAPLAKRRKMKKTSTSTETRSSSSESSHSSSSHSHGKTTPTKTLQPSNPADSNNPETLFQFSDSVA

A-431 = test: Skin A431 cell line MDS Pharma Services Proliferation Assay; assay type: functional, cell-based, Homo sapiens
[19] = tested on: Epidermal growth factor receptor (Homo sapiens), P00533 [G719S]; details: Compound concentration 100.0 nM
[20] = biological target: 5-hydroxytryptamine receptor 2A (Homo sapiens) (UniProt P28223); details: Compound concentration 10.0 uM
[21] = biological target: Epidermal growth factor receptor (Homo sapiens) (UniProt P00533); details: Compound concentration 100.0 nM

Cc1c[nH]c2nccc(Oc3c(F)cc(Nc4cc(Cl)nc(N)n4)cc3F)c12 [BAY-549]
inhibition [1]: 72% | inhibition [2]: 18% | inhibition [3]: -8.68% | inhibition [4]: 10% | inhibition [5]: 26% | inhibition [6]: 84% | inhibition [7]: 33% | inhibition [8]: 7% | inhibition [9]: 8% | pIC50 (PC-6; Homo sapiens, PC-6): 5.38 | TGI (PC-6; Homo sapiens, PC-6): 18 µM | CC50 (PC-6; Homo sapiens, PC-6, read-out: LC50 (the source's name)): 76 µM | Mean % growth (n = 2) for 0.1 µM probe concentration (PC-6; ± SEM 5 % growth): 84% | Mean % growth (n = 2) for 100.0 µM probe concentration (PC-6; ± SEM 6 % growth): -65% | Mean % growth (n = 2) for 10.0 µM probe concentration (PC-6; ± SEM 7 % growth): 32% | Mean % growth (n = 2) for 0.01 µM probe concentration (PC-6; ± SEM 9 % growth): 105% | Mean % growth (n = 2) for 1.0 µM probe concentration (PC-6; ± SEM 9 % growth): 70% | pIC50 (K562; Homo sapiens, K562): 5.08 | TGI (K562; Homo sapiens, K562): > 100 µM | CC50 (K562; Homo sapiens, K562, read-out: LC50 (the source's name)): > 100 µM | Mean % growth (n = 2) for 10.0 µM probe concentration (K562; ± SEM 3 % growth): 42% | Mean % growth (n = 2) for 1.0 µM probe concentration (K562; ± SEM 4 % growth): 69% | Mean % growth (n = 2) for 0.1 µM probe concentration (K562; ± SEM 5 % growth): 92% | Mean % growth (n = 2) for 100.0 µM probe concentration (K562; ± SEM 6 % growth): 32% | Mean % growth (n = 2) for 0.01 µM probe concentration (K562; ± SEM 7 % growth): 95% | inhibition [10]: 7% | inhibition [11]: 9% | inhibition [12]: -7% | inhibition [13]: 6% | pIC50 (A549; Homo sapiens, A549): 5.82 | TGI (A549; Homo sapiens, A549): 25 µM | CC50 (A549; Homo sapiens, A549, read-out: LC50 (the source's name)): > 100 µM | Mean % growth (n = 2) for 1.0 µM probe concentration (A549; ± SEM 2 % growth): 42% | Mean % growth (n = 2) for 10.0 µM probe concentration (A549; ± SEM 2 % growth): 7% | Mean % growth (n = 2) for 100.0 µM probe concentration (A549; ± SEM 3 % growth): -15% | Mean % growth (n = 2) for 0.01 µM probe concentration (A549; ± SEM 4 % growth): 103% | Mean % growth (n = 2) for 0.1 µM probe concentration (A549; ± SEM 4 % growth): 97% | inhibition [14]: 20% | inhibition [15]: -4% | inhibition [16]: 33% | Mean % growth (n = 2) for 0.01 µM probe concentration (DLD-1): 101% | pIC50 (DLD-1; Homo sapiens, DLD-1): 5.62 | TGI (DLD-1; Homo sapiens, DLD-1): > 100 µM | CC50 (DLD-1; Homo sapiens, DLD-1, read-out: LC50 (the source's name)): > 100 µM | Mean % growth (n = 2) for 10.0 µM probe concentration (DLD-1; ± SEM 1 % growth): 24% | Mean % growth (n = 2) for 100.0 µM probe concentration (DLD-1; ± SEM 1 % growth): 5% | Mean % growth (n = 2) for 0.1 µM probe concentration (DLD-1; ± SEM 2 % growth): 94% | Mean % growth (n = 2) for 1.0 µM probe concentration (DLD-1; ± SEM 4 % growth): 66% | inhibition [17]: 1% | inhibition [18]: 86% | pIC50 (A-431; Homo sapiens, A-431): 5.26 | TGI (A-431; Homo sapiens, A-431): 31 µM | CC50 (A-431; Homo sapiens, A-431, read-out: LC50 (the source's name)): > 100 µM | Mean % growth (n = 2) for 1.0 µM probe concentration (A-431; ± SEM 3 % growth): 77% | Mean % growth (n = 2) for 10.0 µM probe concentration (A-431; ± SEM 3 % growth): 35% | Mean % growth (n = 2) for 100.0 µM probe concentration (A-431; ± SEM 5 % growth): -36% | Mean % growth (n = 2) for 0.1 µM probe concentration (A-431; ± SEM 6 % growth): 103% | Mean % growth (n = 2) for 0.01 µM probe concentration (A-431; ± SEM 9 % growth): 92%

Cn1cc(Cl)c2c(Oc3c(F)cc(Nc4cc(Cl)nc(N)n4)cc3F)ccnc21 [BAY-4900]
residual activity [19]: 98% | inhibition [20]: -1.36% | residual activity [21]: 97%
